experiment: Human HepG2 cell viability assay in 384 well format; format: toxicity, cell-based; parameters: dose 125 nL, time 70.5 hour; concentration not given beside the values; conditions: HepG2 cells, read-out: Inhibition

Structure (SMILES) | cytotoxicity at 70.5 h [%]
Cn1cc(C2CC(=O)NC23CCN(C(=O)NC2CC2)CC3)cn1 (centres undefined) | -6.56
CC1(C)CC2(CCO1)NC(=O)c1cc(Br)ccc1-n1nnnc12 (centres undefined) | 1.03
Cc1ccc(C(=O)NCCN2CCOCC2)cc1N(C)S(C)(=O)=O | 1.25
COc1cccc(N2CCN(Cc3ncc[nH]3)CC2=O)c1 | -10.6
CN1CCCC(c2cccc(Cc3ccccc3Cl)n2)C1 (centres undefined) | -3.75
CC[C@H](CO)NC(=O)c1coc(COc2ccccc2F)n1 | 2.14
CC1CCN(c2ncc(-c3ccccc3F)c(-c3nccn3C)n2)CC1 | -2.25
Cn1ccc(C(=O)NCc2ccc(N3CCOCC3)nc2)cc1=O | -12
Cc1cc(C)n(CC2CCCN2Cc2nc(N)c3ccccc3n2)n1 (centres undefined) | -3.06
O=C(NCc1cc(-c2ccccc2)no1)NC1CCCCNC1=O (centres undefined) | 4.05
Cc1c(S(=O)(=O)N2CCCCC2c2nnc(-c3cccs3)o2)cnn1C (centres undefined) | -2.57
Cc1ocnc1C(=O)N1CCN(Cc2ccccc2)[C@@H]2CS(=O)(=O)C[C@@H]21 | -9.03
CCOc1cccc(NC(=O)c2cc(C)on2)n1 | -5.47
O=C(CCc1cscn1)N1CCCC(c2ccn[nH]2)C1 (centres undefined) | -8.08
CN(C)C(=O)CN1C[C@@H]2CC[C@H](C1)N(Cc1ccccc1C#N)C2 | -11
CN(C)Cc1cccc(-c2cccnc2C(=O)NCc2cn(C)cn2)c1 | -1.14
CS(=O)(=O)c1cc(C(=O)NS(=O)(=O)Cc2ccc(F)cc2)ccc1Cl | -3.9
CCCN1CCCn2nc(CNC(=O)C3CCOC3)cc2C1 (centres undefined) | -2.94
Cc1cccn2c(=O)cc(OC(=O)c3ccccc3)nc12 | -17.1
COCC1c2c(cnn2C)CCN1Cc1ccc(C)cc1 (centres undefined) | 42.3
O=C1OCC(CO)N1Cc1cccc(Cl)c1F (centres undefined) | 26.5
O=C(O)c1c[nH]c2cc(NS(=O)(=O)c3cccc(Cl)c3F)ccc12 | -10.1
CCN(CC)C(=O)c1nnn(Cc2ccccc2)c1OC | 0.599

Structure (SMILES) | cytotoxicity at 70.5 h [%]
CCOc1ccccc1CCNC(=O)NCC(O)c1ccsc1 (centres undefined) | -0.583
O=C(NCCN1CCCCCC1)c1n[nH]c(=O)c2ccccc12 | 1.79
c1cn(-c2cnc(C3CCNCC3)cn2)cn1 | -10.7
CCCNC(=O)c1cc(-c2ccn(C(C)C)n2)n2ccccc12 | -7.13
Fc1ccccc1Sc1ccccc1CNC1=NCCN1 | -0.773
CC(C)CC(=O)N1CCCC1c1cc(CO)[nH]n1 (centres undefined) | -4.42
Cc1occc1C(=O)N1CCC2(CCCN(Cc3nccs3)C2)C1 (centres undefined) | 1.62
CC(C#N)CN(C)Cc1c(Cl)ccc2cccnc12 (centres undefined) | 23
O=C(Cc1ccccc1)NC[C@H]1Cn2ccnc2CO1 | 5.13
Cc1c(NC(=O)NC2CCOCC2)cccc1C(=O)N1CCCC1 | 10.6
O=C(CC1CCCC1)N1CCC2(CC1)[C@H](O)C[C@@H]2O | -12.2
CO[C@@H]1CC[C@@H](N(C)C(=O)c2cn3cc(C)ccc3n2)[C@H]1O | -9
O=c1oc(-c2cccs2)nn1CC(O)c1ccc2c(c1)CCC2 (centres undefined) | 14.5
CCc1nc(N2CCC3(CCC(=O)N(Cc4ccncc4)C3)CC2)no1 | 10.6
CCn1nc(CC(C)C)cc1C(=O)N1C[C@H](O)[C@@H](N2CCCCC2)C1 | -4.55
Cn1cnnc1C1CCN(c2nc3ccccc3o2)CC1 | -5.83
CC1COCCN1Cc1nc(-c2cccc(C(F)(F)F)c2)no1 (centres undefined) | -2.89
O=C1Nc2ccccc2C12CCN(Cc1cccs1)CC2 | -2.74
COc1cc(S(=O)(=O)N2CCc3ccc(F)cc32)cc(C(=O)O)c1OC | 10.1
COC(C(=O)N1CCN(Cc2noc(C)n2)CC1)c1ccccc1 (centres undefined) | -3.29
CC(C)N1c2sc(-c3ccsc3)nc2CC1C(=O)NC1CC1 (centres undefined) | -5.25
CC(=O)Nc1ccc(OCc2noc(C(=O)N3CCCC3)n2)cc1 | -14.2
CCOc1ccc(Br)cc1S(=O)(=O)N(CC)Cc1ccc(N(C)C)cc1 | -3.07

Structure (SMILES) | cytotoxicity at 70.5 h [%]
CC(=O)Nc1cc(-c2cccc(F)c2F)n[nH]1 | -5.76
CSCC(CCO)NC(=O)Nc1cc(Br)ccc1C (centres undefined) | -3.57
COCCn1cc(NC(=O)NCC(C)N2CCOCC2)cn1 (centres undefined) | -13.2
COc1cc(N2CCOC(c3ccc(F)cc3)C2)ncn1 (centres undefined) | -6.22
O=C(NCCN1CCOCC1)c1cc(COc2ccccc2F)[nH]n1 | 0.766
COc1ccc(CN(C)C2CCN(S(C)(=O)=O)CC2)c2cccnc12 | -1.77
Cc1nn(C(=O)c2cccnc2)c(C)c1C | 27.4
CNC(=O)CS(=O)(=O)NC1CCC(C)CC1 (centres undefined) | -15.8
CCn1cc(NC(=O)N2CCN(CCSc3ccccc3)CC2)cn1 | -7.68
Cc1nc(C2CCCNC2)nc2c1CCCN2Cc1ccccn1 (centres undefined) | -3.47
COc1ccc2c(c1)c(-c1nc(C)ncc1CN)cn2C | 13.5
O=C(C[C@H]1[C@H]2CN(Cc3ccsc3)C[C@@H]12)N1CCCC1 | -1.9
CCn1cnnc1CNC(=O)NC(c1cccs1)C1CCCC1 (centres undefined) | 19.6
O=C(O)c1cc(S(=O)(=O)Nc2ccc(Cl)cc2)cc2c1OCCO2 | -10.1
Cc1cccc(N2CCC3(CCN(Cc4ccccn4)CC3)CC2)n1 | -9.07
Cn1ccnc1CN1CCC(CNS(=O)(=O)c2cccnc2)C1 (centres undefined) | 7.54
Cc1noc(Cl)c1CCC(=O)N1CCN(CC(C)(C)O)CC1 | 7.84
Cc1cc(C(F)(F)F)n2nc(C3CCN(S(=O)(=O)N(C)C)CC3)cc2n1 | -0.288
CCC(=O)N1CCCC(Cn2cc(-c3ccc(F)cc3)nn2)C1 (centres undefined) | -6.83
Fc1cccc(Cl)c1CNCc1ccccn1 | -12.6
O=C(C1CCOCC1)N1CCOCC(Cc2ncccn2)C1 (centres undefined) | -10.5
Cc1ccc(S(=O)(=O)NCC(O)c2ccoc2)s1 (centres undefined) | -12.5
c1ccc(CN2C[C@H]3CCC[C@@]3(COCC3CCOCC3)C2)nc1 | 0.897

Structure (SMILES) | cytotoxicity at 70.5 h [%]
CCN(CC)S(=O)(=O)N1CC[C@H](c2ccccc2)[C@@H]2[C@H]1CCCCN2C | -0.108
COCc1ccccc1C(=O)N1CCn2c(nnc2C(C)C)C1 | -3.21
O=C(c1cc(F)ccc1Br)N1CCN(C(=O)C2CC2)CC1 | 17.3
Cc1ccoc1C(=O)N1C[C@H]2CCC[C@@]2(COCc2ccncc2)C1 | 5.44
O=C(O)CNc1cc(-c2cc(C(=O)NC3CC3)ccn2)c2cc[nH]c2n1 | -0.0958
Cc1cc(C)c(CNc2nc3ccccc3cc2CO)c(=O)[nH]1 | 6.72
Cc1cccnc1CNC(=O)CC1C(=O)NCCN1CC(C)(C)C (centres undefined) | -10.2
CC[C@@H]1N(Cc2ccsc2)CCC[C@]12CCC(=O)N2C | 18.9
O=C(NC1CCc2cc(Cl)ccc21)C1CCN(C(=O)C2CC2)CC1 (centres undefined) | -4.11
CCCc1nn(Cc2csc(C(C)C)n2)c(=O)o1 | -7.07
Cc1cn2c(n1)CCC(NC(=O)c1[nH]ncc1Br)C2 (centres undefined) | -9.45
COC(=O)NCC(=O)N(C)Cc1csc(-c2cccs2)n1 | 3.35
c1cncc(CNc2ncnc3c2CCN(Cc2ccsc2)CC3)c1 | -5.06
COc1ccc(CN)c(OC(F)F)c1 | -10.1
CC(C)Nc1nc(N2CCOCC2)nc2c1CN(Cc1ccoc1)CC2 | -12.3
Cc1nc2c(c(NC(C)C)n1)CCN(Cc1cccnc1)CC2 | 4.65
CN(C)S(=O)(=O)N1CCCC(c2cccc(Cc3ccc(Cl)cc3)n2)C1 (centres undefined) | 17.5
O=C(Cc1cn2ccsc2n1)N1CCOCC(O)(CN2CCCC2)C1 (centres undefined) | -4.72
NC(=O)CN1CC2(CCC1=O)CCN(Cc1cc(F)ccc1Cl)CC2 | -11.5
CCCSc1nn(CCCN(C)C)c2nc3sc(C)c(CC)c3c(=O)n12 | 11.5
O=C(c1cnccn1)N1CCN(Cc2cscn2)CC1 | 31.3
CCC(C(=O)NCc1csc(N2CCOCC2)n1)n1cccn1 (centres undefined) | -4.73
COc1cccc2c1OCC(Cc1cnc(N)c(C)c1)C2 (centres undefined) | -8.04

Structure (SMILES) | cytotoxicity at 70.5 h [%]
Cc1ccc(C)c(Oc2cc(-n3nc(C)c(C#N)c3N)nc(C)n2)c1 | -6.07
CCN(CC1CCOC1)C(=O)c1nc(-c2ccco2)sc1C (centres undefined) | -2.01
CC(=O)N[C@H]1CN(CC(=O)NCc2ccccc2C)C[C@@H]1C(C)C | -4.45
COCC1CN(C(=O)c2cccc(C)n2)Cc2nccn2C1 (centres undefined) | -10.2
Cc1cc(NS(=O)(=O)CC2CCCCO2)ccc1F (centres undefined) | -2.48
c1ncc(-c2cn(CCSc3cnn[nH]3)nn2)cn1 | -6.48
O=C(c1ccccc1)N1CCO[C@@H]2CN(Cc3ccc[nH]3)C[C@@H]2C1 | 1.61
O=C1N(CC2CC2)C(c2cncs2)NC12CCCC2 (centres undefined) | -4.01
CCN(Cc1cn(CC2CCNCC2)nn1)CC1CCCO1 (centres undefined) | -6.79
CCCc1cc(C(=O)N2CCC3(CC2)CN(CCN(C)C)C(=O)O3)no1 | -0.0862
COc1ccc(NC(=O)CSC(F)(F)F)cn1 | 9.73
Cn1cc(-c2ncc3c(c2C(=O)O)CCN(CC2CC2)C3)cn1 | -1.4
COc1ccc(-n2cc(CNC(=O)c3ccc[nH]3)nn2)cc1 | -2.18
NC(=O)c1cnn2c1NCC(CNCCOc1ccccc1)C2 (centres undefined) | -5.14
Cc1nn(C)c(Cl)c1C1CCCN1C(=O)c1cnc[nH]1 (centres undefined) | -12.8
O=C(c1ccccc1)N1CCC2(CC1)CNc1c(F)cccc12 | -7.65
CC[C@H]1CN2CC[C@H]1C[C@@H]2CNC(=O)Nc1ccccc1 | -2.2
Cc1noc(C)c1C(=O)N1CCOC2(COCCN(C(C)C)C2)C1 (centres undefined) | -1.02
CCN(CC)S(=O)(=O)NC1CCN(c2ccc(OC)cc2)CC1 | -3.82
COC(=O)c1cc(OCC2CCC2)cc(C(=O)N[C@H](C)C(N)=O)c1 | -10.2
O=C(c1ccc2c(c1)[nH]c(=O)n2C1CCCC1)N1CC(O)C1 | -3.54
Cc1ccccc1NC(=O)NCC(C)(O)c1cccs1 (centres undefined) | 4.31
